Data on 28 compounds can be found in patent US12473289B2, “Heterocyclic compounds as delta-5 desaturase inhibitors and methods of use” (Amgen Inc., priority 2019, dated 2025).

For this experiment, the target named is Delta-5-Desaturase (D5D) (Homo sapiens (Human), UniProt O60427). Description: In vitro measurement of Delta-5-Desaturase inhibitory activity using DGLA-CoA and Arachidonyl-CoA mass spectrometric assays. The experiment is classed as biochemical. The settings on record: membrane preparations of D5D-overexpressing HEK293 6E cells; averaged over at least two independent runs. How it is done: In vitro Measurement of Delta-5-Desaturase Inhibitory Activity using DGLA-CoA and Arachidonyl-CoA Mass Spectrometric Assays
Membrane preparations of D5D-overexpressing HEK293 6E cells were prepared in which the total protein concentration was 5.6 mg/mL. Stock D5D membrane preparations were diluted in D5D assay buffer (25 mM 2-amino-2-(hydroxymethyl)-1,3-propanediol, pH 7.5 containing 10 mM MgCl2, 1 mM octyl glucoside (SigmaAldrich 0-8001), 1 mM tris(2-carboxyethyl)phosphine hydrochloride (SigmaAldrich 646547)) to a final D5D membrane concentration of 10 μg/mL in an assay plate containing serially diluted test compounds. To 15 μL of this D5D preparation was added 15 μL of a substrate solution (0.25 mM NADH (nicotinamide adenine dinucleotide, Roche Diag. 10107735001), 0.25 mM adenosine triphosphate (SigmaAldrich A-3377), 0.05 mM coenzyme A hydrate (SigmaAldrich C-4282), and 0.01 mM DGLA (dihomo-g-linolenic acid, Sigma E-4504) in the same D5D assay buffer. After one-hour incubation at ambient temperature acetonitrile (30 μL) was added to quench the reaction and plates were centrifuged for 10 min @3,000 rpm. Mass spectrometric analysis involved a Rapidfire 360 SPE system coupled to an ABSciex API4000 Triple Quadrupole mass spectrometer using a C18 SPE cartridge (G9203-80105) with ionization in negative mode (solvent A=100% water; solvent B=100% acetonitrile, each solvent containing 5 mM ammonium acetate). DGLA-CoA and Arachidonyl-CoA were detected by multiple reaction monitoring (MRM) of the doubly charged parent ions at m/z 526.6 and 525.6, respectively.
Sx is value from unknown sample, So is value from DMSO alone and Sc is value from no enzyme well. For CRC analysis, the % of inhibitions were analyzed with 4 Parameter Logistic Model or Sigmoidal Dose-Response Model using XLfit (IDBS, Guilford, UK). The potency of the test item was expressed as IC50 nM, corresponding to the test item concentration able to inhibit the 50% of the enzyme maximal response. IC50 values were averaged values determined by at least two independent runs.
This assay may be used to test any of the compounds described herein to assess and characterize a compound's ability to inhibit D5D.

Chain of Delta-5-Desaturase (D5D) (O60427 whole entry, species assumed): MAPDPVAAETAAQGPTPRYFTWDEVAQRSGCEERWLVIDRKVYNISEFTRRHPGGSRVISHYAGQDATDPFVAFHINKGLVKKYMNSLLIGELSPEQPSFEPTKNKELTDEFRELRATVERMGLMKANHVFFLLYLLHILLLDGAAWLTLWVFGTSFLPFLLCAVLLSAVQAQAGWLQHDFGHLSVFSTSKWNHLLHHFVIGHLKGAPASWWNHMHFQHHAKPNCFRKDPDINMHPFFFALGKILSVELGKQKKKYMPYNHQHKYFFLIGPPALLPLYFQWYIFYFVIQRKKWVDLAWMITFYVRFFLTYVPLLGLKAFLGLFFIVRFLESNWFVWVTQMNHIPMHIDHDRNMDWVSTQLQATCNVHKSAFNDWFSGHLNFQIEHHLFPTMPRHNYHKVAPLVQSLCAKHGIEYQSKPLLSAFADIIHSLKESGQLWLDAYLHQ

As a reminder, the IC50 is the midpoint of a concentration-inhibition curve. Higher therefore signals a need for much substance. In turn, `O=c1c(-c2ccc(OCC(F)(F)F)cc2)c(C(F)(F)F)nc2cc(Cl)ccn12` [Example 2-7, 8-chloro-3-(4-(2,2,2-trifluoroethoxy)phenyl)-2-(trifluoromethyl)-4H-pyrido[1,2-a]pyrimidin-4-one] displayed an IC50 of 4.1 nM.
In turn, `Cc1cn2c(=O)c(-c3cnn(CC(F)(F)C(F)(F)F)c3)c(C(F)(F)F)nc2cn1` [Example 39-31, 7-methyl-3-[1-(2,2,3,3,3-pentafluoropropyl)-1H-pyrazol-4-yl]-2-(trifluoromethyl)-4H-pyrazino[1,2-a]pyrimidin-4-one] had an IC50 of 28 nM.
As for `[2H]C([2H])([2H])Oc1ccn2c(=O)c(-c3cnn(CCCC(F)(F)F)c3)c(C(F)(F)F)nc2c1` [Example 1-63, 8-(methyloxy-d3)-3-(1-(4,4,4-trifluorobutyl)-1H-pyrazol-4-yl)-2-(trifluoromethyl)-4H-pyrido[1,2-a]pyrimidin-4-one], the IC50 was 28.1 nM.
The figure for `CN(C)c1ccn2c(=O)c(-c3ccc(OCC(F)(F)F)cc3)c(C(F)(F)F)nc2c1` [Example 1-28, 8-(dimethylamino)-3-(4-(2,2,2-trifluoroethoxy)phenyl)-2-(trifluoromethyl)-4H-pyrido[1,2-a]pyrimidine-4-one] is 43.5 nM; for `COc1ccn2c(=O)c(-c3ccc(OCC(F)(F)F)cc3F)c(C(F)(F)F)nc2n1` [Example 1-53, 3-(2-fluoro-4-(2,2,2-trifluoroethoxy)phenyl)-8-methoxy-2-(trifluoromethyl)-4H-pyrimido[1,2-a]pyrimidin-4-one] it is 8.5 nM.
As for `COc1ccn2c(=O)c(-c3cn(CCC(F)(F)F)cn3)c(C(F)(F)F)nc2c1` [Example 25, 8-Methoxy-2-(trifluoromethyl)-3-(1-(3,3,3-trifluoropropyl)-1H-imidazol-4-yl)-4H-pyrido[1,2-a]pyrimidin-4-one], the IC50 came out at 66.2 nM.
In turn, `COc1ccn2c(=O)c(-c3ccc(OCC(F)(F)F)c(F)c3)c(C(F)F)nc2c1` [Example 1-12, 2-(difluoromethyl)-3-(3-fluoro-4-(2,2,2-trifluoroethoxy)phenyl)-8-methoxy-4H-pyrido[1,2-a]pyrimidin-4-one] yielded an IC50 of 9.9 nM.
Next, `[2H]C([2H])([2H])Oc1ccn2c(=O)c(-c3ccc(OCC4CC4)cc3)c(C(F)(F)F)nc2c1` [Example 1-65, 3-(4-(cyclopropylmethoxy)phenyl)-8-(methyloxy-d3)-2-(trifluoromethyl)-4H-pyrido[1,2-a]pyrimidin-4-one]: 3.2 nM; `COc1ccn2c(=O)c(-c3cnc(OCC(F)(F)F)c(F)c3)c(C(F)(F)F)nc2c1` [Example 7-3, 3-(5-fluoro-6-(2,2,2-trifluoroethoxy)-3-pyridinyl)-8-methoxy-2-(trifluoromethyl)-4H-pyrido[1,2-a]pyrimidin-4-one]: 4050 nM; `CC(=O)c1ccn2c(=O)c(-c3ccc(OCC(F)(F)F)cc3)c(C(F)(F)F)nc2c1` [Example 1-25, 8-acetyl-3-(4-(2,2,2-trifluoroethoxy)phenyl)-2-(trifluoromethyl)-4H-pyrido[1,2-a]pyrimidin-4-one]: 6.4 nM.
The figure for `CCOc1nc2cc(OC)ccn2c(=O)c1-c1cnn(CC(F)(F)C(F)(F)F)c1` [Example 41-4, 2-ethoxy-8-methoxy-3-[1-(2,2,3,3,3-pentafluoropropyl)-1H-pyrazol-4-yl]-4H-pyrido[1,2-a]pyrimidin-4-one] is 22.3 nM; for `COc1ccn2c(=O)c(-c3cnc(OCC(F)(F)C(F)(F)F)nc3)c(C(F)(F)F)nc2c1` [Example 39-12, 8-methoxy-3-[2-(2,2,3,3,3-pentafluoropropoxy)pyrimidin-5-yl]-2-(trifluoromethyl)-4H-pyrido[1,2-a]pyrimidin-4-one] it is 53.7 nM; for `CNC(=O)c1ccn2c(=O)c(-c3ccc(OCC(F)(F)F)cc3)c(C(F)(F)F)nc2c1` [Example 12-1, N-Methyl-4-oxo-3-(4-(2,2,2-trifluoroethoxy)phenyl)-2-(trifluoromethyl)-4H-pyrido[1,2-a]pyrimidine-8-carboxamide] it is 120 nM.
`COc1ccn2c(=O)c(-c3cnn(CC4COC4)c3)c(C(F)(F)F)nc2c1` [Example 39-54, 8-methoxy-3-{1-[(oxetan-3-yl)methyl]-1H-pyrazol-4-yl}-2-(trifluoromethyl)-4H-pyrido[1,2-a]pyrimidin-4-one] displayed an IC50 of 207 nM.
The figure for `COc1ccn2c(=O)c(-c3ncc(OCC(F)(F)F)s3)c(C(F)(F)F)nc2c1` [Example 57, 8-methoxy-3-[5-(2,2,2-trifluoroethoxy)-1,3-thiazol-2-yl]-2-(trifluoromethyl)-4H-pyrido[1,2-a]pyrimidin-4-one] is 1150 nM; for `[2H]C([2H])([2H])Oc1ccn2c(=O)c(-c3ccc(OCCF)cc3)c(C(F)(F)F)nc2n1` [Example 1-55, 3-(4-(2-fluoroethoxy)phenyl)-8-(methyloxy-d3)-2-(trifluoromethyl)-4H-pyrimido[1,2-a]pyrimidin-4-one] it is 112 nM; for `Cc1ccc2nc(C(F)(F)F)c(-c3cnn(CC(F)(F)C(F)(F)F)c3)c(=O)n2n1` [Example 39-32, 7-methyl-3-[1-(2,2,3,3,3-pentafluoropropyl)-1H-pyrazol-4-yl]-2-(trifluoromethyl)-4H-pyrimido[1,2-b]pyridazin-4-one] it is 154 nM.
Next, `CC1(c2ccn3c(=O)c(-c4ccc(OCC(F)(F)F)cc4)c(C(F)(F)F)nc3c2)CCO1` (stereo not shown) [Example 27, 8-(2-Methyl-2-oxetanyl)-3-(4-(2,2,2-trifluoroethoxy)phenyl)-2-(trifluoromethyl)-4H-pyrido[1,2-a]pyrimidin-4-one]: 553 nM; `O=c1c(-c2cnn(CC(F)(F)C(F)(F)F)c2)c(C(F)(F)F)nc2ccc(C3CC3)cn12` [Example 39-21, 7-cyclopropyl-3-[1-(2,2,3,3,3-pentafluoropropyl)-1H-pyrazol-4-yl]-2-(trifluoromethyl)-4H-pyrido[1,2-a]pyrimidin-4-one]: 110 nM; `C[C@@H](O)c1ccn2c(=O)c(-c3ccc(OCC(F)(F)F)cc3)c(C(F)(F)F)nc2c1` [Example 30-2, 8-((1R)-1-hydroxyethyl)-3-(4-(2,2,2-trifluoroethoxy)phenyl)-2-(trifluoromethyl)-4H-pyrido[1,2-a]pyrimidin-4-one]: 111 nM.
The figure for `COc1ccn2c(=O)c(-c3cc(-c4ccccc4)no3)c(C(F)(F)F)nc2c1` [Example 1-5, 8-methoxy-3-(3-phenyl-1,2-oxazol-5-yl)-2-(trifluoromethyl)-4H-pyrido[1,2-a]pyrimidin-4-one] is 46 nM; for `[2H]C([2H])([2H])Oc1ccn2c(=O)c(-c3ccc(OCCF)cc3)c(C(F)(F)F)nc2c1` [Example 1-51, 3-(4-(2-fluoroethoxy)phenyl)-8-(methyloxy-d3)-2-(trifluoromethyl)-4H-pyrido[1,2-a]pyrimidin-4-one] it is 26.6 nM.
With `O=c1c(-c2cnn(CC(F)(F)C(F)(F)F)c2)c(C(F)(F)F)nc2cc(O)cnn12` [Example 44, 8-Hydroxy-3-[1-(2,2,3,3,3-pentafluoropropyl)-1H-pyrazol-4-yl]-2-(trifluoromethyl)-4H-pyrimido[1,2-b]pyridazin-4-one], the IC50 is 1810 nM.
The figure for `O=c1c(-c2ccc(OCC(F)(F)F)cn2)c(C(F)(F)F)nc2ccccn12` [Example 7-2, 3-(5-(2,2,2-trifluoroethoxy)-2-pyridinyl)-2-(trifluoromethyl)-4H-pyrido[1,2-a]pyrimidin-4-one] is 5230 nM.
The compound `[2H]C([2H])([2H])Oc1ccn2c(=O)c(-c3ccc(OCC(F)F)cc3)c(C(F)(F)F)nc2c1` [Example 1-52, 3-(4-(2,2-difluoroethoxy)phenyl)-8-(methyloxy-d3)-2-(trifluoromethyl)-4H-pyrido[1,2-a]pyrimidin-4-one] had an IC50 of 5.6 nM. This IC50 is about 930-fold lower than that of the compound before.
The figure for `COc1ccn2c(=O)c(-c3ccc(OCC#N)cc3)c(C(F)(F)F)nc2c1` [Example 21, (4-(8-Methoxy-4-oxo-2-(trifluoromethyl)-4H-pyrido[1,2-a]pyrimidin-3-yl)phenoxy)acetonitrile] is 5.8 nM; for `COc1ccn2c(=O)c(-n3cnc(CCC(F)(F)F)c3)c(C(F)(F)F)nc2c1` [Example 59, 8-Methoxy-2-(trifluoromethyl)-3-[4-(3,3,3-trifluoropropyl)-1H-imidazol-1-yl]-4H-pyrido[1,2-a]pyrimidin-4-one] it is 365 nM.
The compound `COc1ccn2c(=O)c(-c3ncc(CCC(F)(F)F)s3)c(C(F)(F)F)nc2c1` [Example 58, 8-Methoxy-2-(trifluoromethyl)-3-[5-(3,3,3-trifluoropropyl)-1,3-thiazol-2-yl]-4H-pyrido[1,2-a]pyrimidin-4-one] came in with a concentration for half-maximal inhibition (IC50) of 594 nM. Compared with the last compound, the IC50 is about 1.6-fold higher.
